{"source": "ChEMBL document CHEMBL1155799", "about": "(Bioorg Med Chem, 2008)", "key": {"[1]": {"target": "T1, D(4) dopamine receptor (Homo sapiens, UniProt P21917)", "T1 sequence (P21917 whole entry)": "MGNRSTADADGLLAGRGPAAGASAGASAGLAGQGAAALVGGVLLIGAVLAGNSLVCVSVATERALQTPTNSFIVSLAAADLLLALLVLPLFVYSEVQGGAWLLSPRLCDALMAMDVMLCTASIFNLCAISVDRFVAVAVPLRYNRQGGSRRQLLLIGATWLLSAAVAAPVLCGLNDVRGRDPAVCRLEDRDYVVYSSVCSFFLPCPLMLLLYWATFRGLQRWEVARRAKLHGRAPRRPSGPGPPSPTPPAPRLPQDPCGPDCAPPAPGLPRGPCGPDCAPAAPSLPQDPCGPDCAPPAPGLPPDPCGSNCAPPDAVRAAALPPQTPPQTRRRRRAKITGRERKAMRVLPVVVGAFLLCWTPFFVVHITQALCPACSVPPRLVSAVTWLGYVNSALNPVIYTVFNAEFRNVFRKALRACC", "description": "Binding affinity to human cloned dopamine D4 receptor"}, "[2]": {"target": "D(3) dopamine receptor (Homo sapiens, UniProt P35462)", "sequence (P35462 whole entry)": "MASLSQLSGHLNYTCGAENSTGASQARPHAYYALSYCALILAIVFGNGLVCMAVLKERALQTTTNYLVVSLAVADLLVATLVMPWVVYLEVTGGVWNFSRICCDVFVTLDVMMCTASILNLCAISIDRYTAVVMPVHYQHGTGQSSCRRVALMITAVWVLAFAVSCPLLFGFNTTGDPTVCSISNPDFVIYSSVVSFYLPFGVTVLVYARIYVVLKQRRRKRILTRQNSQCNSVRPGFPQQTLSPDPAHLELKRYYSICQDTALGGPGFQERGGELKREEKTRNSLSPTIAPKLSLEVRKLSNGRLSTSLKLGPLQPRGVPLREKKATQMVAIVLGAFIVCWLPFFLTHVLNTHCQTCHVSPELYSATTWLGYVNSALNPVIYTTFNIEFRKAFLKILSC", "description": "Binding affinity to human cloned dopamine D3 receptor"}, "[3]": {"target": "T2, 5-hydroxytryptamine receptor 1A (Homo sapiens, UniProt P08908)", "T2 sequence (P08908 whole entry)": "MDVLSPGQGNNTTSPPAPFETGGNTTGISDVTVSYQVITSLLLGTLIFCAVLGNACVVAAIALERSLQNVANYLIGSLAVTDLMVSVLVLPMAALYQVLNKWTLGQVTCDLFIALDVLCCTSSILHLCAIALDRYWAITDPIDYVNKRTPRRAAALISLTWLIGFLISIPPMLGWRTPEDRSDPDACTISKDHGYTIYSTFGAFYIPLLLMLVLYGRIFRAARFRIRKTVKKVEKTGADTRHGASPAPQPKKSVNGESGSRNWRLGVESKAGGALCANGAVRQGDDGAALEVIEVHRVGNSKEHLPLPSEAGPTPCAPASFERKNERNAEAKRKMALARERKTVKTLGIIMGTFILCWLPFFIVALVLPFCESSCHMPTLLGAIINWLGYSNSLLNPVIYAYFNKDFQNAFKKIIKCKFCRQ", "description": "Binding affinity to human cloned 5HT1A receptor"}, "[4]": {"target": "T3, 5-hydroxytryptamine receptor 2C (Homo sapiens, UniProt P28335)", "T3 sequence (P28335 whole entry)": "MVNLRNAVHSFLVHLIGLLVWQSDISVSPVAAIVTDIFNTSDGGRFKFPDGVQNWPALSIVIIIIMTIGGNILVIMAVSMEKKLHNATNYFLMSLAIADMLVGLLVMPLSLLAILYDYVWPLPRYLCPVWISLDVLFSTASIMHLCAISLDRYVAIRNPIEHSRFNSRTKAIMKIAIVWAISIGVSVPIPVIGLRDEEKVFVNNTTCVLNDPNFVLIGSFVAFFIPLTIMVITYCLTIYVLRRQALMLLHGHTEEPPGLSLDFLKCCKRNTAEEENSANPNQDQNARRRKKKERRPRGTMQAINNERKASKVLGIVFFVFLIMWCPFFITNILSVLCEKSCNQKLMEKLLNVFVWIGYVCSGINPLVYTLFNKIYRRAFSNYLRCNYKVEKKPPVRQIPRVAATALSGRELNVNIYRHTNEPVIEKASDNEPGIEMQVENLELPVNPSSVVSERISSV", "description": "Binding affinity to human cloned 5HT2C receptor"}, "[5]": {"target": "5-hydroxytryptamine receptor 2A (Homo sapiens, UniProt P28223)", "sequence (P28223 whole entry)": "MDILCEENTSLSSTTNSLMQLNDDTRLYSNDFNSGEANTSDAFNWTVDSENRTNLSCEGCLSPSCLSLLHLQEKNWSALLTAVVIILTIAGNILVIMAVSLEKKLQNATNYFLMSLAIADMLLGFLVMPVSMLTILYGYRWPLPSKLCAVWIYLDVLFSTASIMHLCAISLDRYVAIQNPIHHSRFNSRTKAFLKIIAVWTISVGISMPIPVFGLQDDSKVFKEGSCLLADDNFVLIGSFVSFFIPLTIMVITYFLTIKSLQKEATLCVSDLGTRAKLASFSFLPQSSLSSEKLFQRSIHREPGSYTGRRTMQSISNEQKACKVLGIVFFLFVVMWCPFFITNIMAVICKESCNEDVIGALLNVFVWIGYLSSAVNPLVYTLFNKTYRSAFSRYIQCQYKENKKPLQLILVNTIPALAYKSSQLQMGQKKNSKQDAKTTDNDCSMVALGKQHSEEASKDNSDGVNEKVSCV", "description": "Binding affinity to human cloned 5HT2A receptor"}, "[6]": {"species_on_record": "Mus musculus", "assay": "animal or person", "format": "functional", "details": "Swiss Webster, 0.5 h", "description": "Blockade of apomorphine-induced climbing stereotypy in Swiss Webster mouse after 30 mins"}, "[7]": {"target": "Sodium-dependent dopamine transporter (Homo sapiens, UniProt Q01959)", "sequence (Q01959 whole entry)": "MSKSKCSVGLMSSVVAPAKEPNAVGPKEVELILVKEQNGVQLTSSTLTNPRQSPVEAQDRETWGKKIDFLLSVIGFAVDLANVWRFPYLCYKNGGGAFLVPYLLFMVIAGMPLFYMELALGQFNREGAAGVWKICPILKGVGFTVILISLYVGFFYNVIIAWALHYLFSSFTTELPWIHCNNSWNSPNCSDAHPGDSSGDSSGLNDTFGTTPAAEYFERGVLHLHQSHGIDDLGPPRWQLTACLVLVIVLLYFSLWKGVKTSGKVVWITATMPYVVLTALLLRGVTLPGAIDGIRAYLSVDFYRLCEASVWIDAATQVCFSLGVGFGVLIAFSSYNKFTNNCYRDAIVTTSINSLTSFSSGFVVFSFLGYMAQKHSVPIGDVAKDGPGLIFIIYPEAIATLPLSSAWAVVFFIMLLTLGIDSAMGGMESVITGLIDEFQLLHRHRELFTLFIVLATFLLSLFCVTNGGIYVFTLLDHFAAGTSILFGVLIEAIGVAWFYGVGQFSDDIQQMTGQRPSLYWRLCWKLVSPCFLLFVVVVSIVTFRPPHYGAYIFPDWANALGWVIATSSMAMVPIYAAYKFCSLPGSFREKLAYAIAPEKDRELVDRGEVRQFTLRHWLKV", "description": "Binding affinity to human DAT"}, "[8]": {"target": "5-hydroxytryptamine receptor 6 (Homo sapiens, UniProt P50406)", "sequence (P50406 whole entry)": "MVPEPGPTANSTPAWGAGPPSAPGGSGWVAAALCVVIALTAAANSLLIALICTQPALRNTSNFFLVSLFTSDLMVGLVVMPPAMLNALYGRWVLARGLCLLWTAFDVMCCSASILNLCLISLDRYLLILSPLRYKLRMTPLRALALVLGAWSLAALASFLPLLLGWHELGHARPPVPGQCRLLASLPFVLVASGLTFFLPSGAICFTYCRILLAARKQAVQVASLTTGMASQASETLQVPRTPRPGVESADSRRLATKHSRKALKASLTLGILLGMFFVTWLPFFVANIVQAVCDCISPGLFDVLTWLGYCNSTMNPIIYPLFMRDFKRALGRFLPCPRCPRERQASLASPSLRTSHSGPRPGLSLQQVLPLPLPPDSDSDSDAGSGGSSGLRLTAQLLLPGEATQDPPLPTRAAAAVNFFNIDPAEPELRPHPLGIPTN", "description": "Binding affinity to human cloned 5HT6 receptor"}, "[9]": {"target": "5-hydroxytryptamine receptor 2B (Homo sapiens, UniProt P41595)", "sequence (P41595 whole entry)": "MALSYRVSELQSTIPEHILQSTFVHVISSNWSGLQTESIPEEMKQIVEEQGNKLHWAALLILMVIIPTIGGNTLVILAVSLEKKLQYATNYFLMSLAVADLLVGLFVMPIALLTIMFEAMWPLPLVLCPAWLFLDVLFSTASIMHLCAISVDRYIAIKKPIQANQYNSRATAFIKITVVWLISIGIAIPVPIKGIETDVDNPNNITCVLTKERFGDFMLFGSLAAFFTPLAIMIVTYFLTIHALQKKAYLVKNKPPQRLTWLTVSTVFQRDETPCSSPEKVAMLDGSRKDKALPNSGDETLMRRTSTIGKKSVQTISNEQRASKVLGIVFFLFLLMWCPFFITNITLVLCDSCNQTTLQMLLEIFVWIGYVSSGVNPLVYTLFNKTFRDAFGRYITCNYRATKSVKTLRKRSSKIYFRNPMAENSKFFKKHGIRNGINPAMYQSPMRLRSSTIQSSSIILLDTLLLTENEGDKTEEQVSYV", "description": "Binding affinity to human cloned 5HT2B receptor"}, "[10]": {"target": "T4, Muscarinic acetylcholine receptor M1 (Homo sapiens, UniProt P11229)", "T4 sequence (P11229 whole entry)": "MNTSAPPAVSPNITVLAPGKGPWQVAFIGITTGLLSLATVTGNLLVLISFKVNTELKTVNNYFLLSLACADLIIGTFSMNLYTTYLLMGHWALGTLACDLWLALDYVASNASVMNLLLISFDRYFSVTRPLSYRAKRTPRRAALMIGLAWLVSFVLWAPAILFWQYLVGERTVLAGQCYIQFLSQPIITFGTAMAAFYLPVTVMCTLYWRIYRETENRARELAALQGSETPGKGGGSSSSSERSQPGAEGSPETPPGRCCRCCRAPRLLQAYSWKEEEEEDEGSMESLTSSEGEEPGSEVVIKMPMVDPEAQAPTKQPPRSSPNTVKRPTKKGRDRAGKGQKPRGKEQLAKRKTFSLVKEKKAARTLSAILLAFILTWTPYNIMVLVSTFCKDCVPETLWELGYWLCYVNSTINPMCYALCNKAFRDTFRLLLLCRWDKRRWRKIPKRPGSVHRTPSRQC", "description": "Binding affinity to human cloned muscarinic M1 receptor"}}}
{"compound": "O=C(CCCN1CC2CC1CN2c1ccc(Cl)cc1)c1ccc(F)cc1", "note": "(stereo not given)", "values": [{"measurement": "Ki", "setting": "[1]", "value": 520, "unit": "nM"}, {"measurement": "Ki", "setting": "[2]", "value": 220, "unit": "nM"}]}
{"compound": "O=C(CCCN1CCN(c2ccc(Cl)cc2)CC1)c1ccc(F)cc1", "values": [{"measurement": "Ki", "setting": "[3]", "value": 90.9, "unit": "nM"}, {"measurement": "Ki", "setting": "[4]", "value": 3550, "unit": "nM"}]}
{"compound": "O=C(CCCN1C2CCC1CC(O)(c1ccccc1)C2)c1ccc(F)cc1", "note": "(stereo not given)", "values": [{"measurement": "Ki", "setting": "[3]", "value": 37.6, "unit": "nM"}, {"measurement": "Ki", "setting": "[5]", "value": 12.3, "unit": "nM"}, {"measurement": "Ki", "setting": "[4]", "value": "> 10000", "unit": "nM"}]}
{"compound": "O=C(CCCN1CC2CCC(C1)N2c1ccccc1)c1ccc(F)cc1", "values": [{"measurement": "Ki", "setting": "[1]", "value": 2100, "unit": "nM"}, {"measurement": "Ki", "setting": "[2]", "value": 600, "unit": "nM"}]}
{"compound": "O=C(CCCN1CCCN(c2ccc(Cl)cc2)CC1)c1ccc(F)cc1", "values": [{"measurement": "ED50", "setting": "[6]", "value": 35.8, "unit": "µmol/kg"}, {"measurement": "Ki", "setting": "[7]", "value": 1150, "unit": "nM"}, {"measurement": "Ki", "setting": "[8]", "value": 296, "unit": "nM"}, {"measurement": "Ki", "setting": "[9]", "value": 495, "unit": "nM"}]}
{"compound": "O=C(CCCN1C2CCC1CC(c1ccccc1)C2)c1ccc(F)cc1", "note": "(stereo not given)", "values": [{"measurement": "Ki", "setting": "[3]", "value": 414, "unit": "nM"}, {"measurement": "Ki", "setting": "[5]", "value": 106, "unit": "nM"}, {"measurement": "Ki", "setting": "[4]", "value": 1060, "unit": "nM"}]}
{"compound": "O=C1Cc2cc(CCN3CCN(c4nsc5ccccc45)CC3)c(Cl)cc2N1", "note": "[ZIPRASIDONE]", "values": [{"measurement": "Ki", "setting": "[3]", "value": 2.5, "unit": "nM"}, {"measurement": "Ki", "setting": "[8]", "value": 76, "unit": "nM"}, {"measurement": "Ki", "setting": "[10]", "value": 5100, "unit": "nM"}]}
{"compound": "O=C(CCCN1CCC(O)(c2ccc(Cl)cc2)C1)c1ccc(F)cc1", "note": "(single isomer, unassigned; (+))", "values": [{"measurement": "Ki", "setting": "[3]", "value": 772, "unit": "nM"}]}
